Measurements taken from US20240009104A1, “PROCESS FOR EXTRACTION AND HEMI-SYNTHESIS OF PYRANOANTHOCYANINS AND SKINCARE COSMETIC FORMULATIONS CONTAINING THEM” (UNIVERSIDADE DO PORTO, priority 2021, published 2024).

Key:
[1] = Determination of solar protection factor (SPF), spectrophotometric, Mansur equation; assay type: physicochemical; conditions: for SPF: 1.0 mg in 5 mL ethanol, absorbance 290-320 nm, Mansur equation
Protocol: Sample preparation 1.0 mg of all samples was weighed, transferred to a 5 mL volumetric flask, diluted to volume with ethanol, followed by ultra-sonication for 5 min. The absorption spectra of samples in solution were obtained in the range of 290 to 450 nm using 1 cm quartz cell, and ethanol as a blank. The absorption data were obtained in the range of 290 to 320, every 5 nm, and 3 determinations were made at each point, followed by the application of Mansur equation.
Where CF (correction factor) is 10, EE (A) is erythmogenic effect of radiation with wavelength λ, Abs is Spectrophotometric absorbance values at wavelength λ. The obtained absorbance values are multiplied with EE (λ)×1 (λ) and then their summation is taken and multiplied with correction factor to obtain the SPF values.

P. aeruginosa ATCC 27853 = assay: MIC/MBC broth microdilution, P. aeruginosa; assay type: cell-based; conditions: Pseudomonas aeruginosa, ATCC27853; P. aeruginosa ATCC 27853, 24 h, 0.5 to 512 μg/mL
Protocol: (§1) Compounds/extracts were tested against the following bacterial strains: Pseudomonas aeruginosa ATCC 27853, Staphylococcus aureus ATCC 29213, Staphylococcus epidermidis ATCC 14990, Streptococcus pyogenes ATCC 19615, Micrococcus luteus ATCC 4698. Prior to each in vitro bioassay, fresh cultures were obtained for each strain using the appropriate medium and incubation conditions as follows. Staphylococcus spp. and P. aeruginosa were grown on Mueller-Hinton (MH) agar (Liofilchemsrl, Italy) for 24 h at 37° C., while M. luteus was grown in Tryptic Soy agar (TSA, Liofilchem srl, Italy) for 24 h at 30° C. and S. pyogenes on TSA with 5% defibrinated sheep blood (Thermo Fisher Scientific, USA) for 24 h at 37° C. in an atmosphere of 5% CO2.
(§2) Minimum inhibitory concentrations (MICs) of compounds/extracts were determined using a broth microdilution technique, following the recommendations of the Clinical and Laboratory Standards Institute. Briefly, fresh colonies of each strain were used to prepare the respective inocula with an optical density at 600 nm (OD600) equal to 0.1 (approximately 1^10^8 CFU/mL). For all strains, cation-adjusted Mueller-Hinton broth (MHB2, Sigma-Aldrich, USA) was used, but in the case of S. pyogenes, MBH2 was previously supplemented with 2.5% lysed horse blood (Thermo Fisher Scientific, USA). In 96-well, U-bottom, microplates, each compound was serially diluted in the respective medium from stock solutions (10 mg/mL in DMSO) to achieve in-test concentrations ranging from 0.5 to 512 μg/mL. Wells were inoculated so that the final concentration in eachwas of 5×10^5 CFU/mL. The microplates were incubated at 37° C. for 24 h. The MIC was defined as the lowest concentration of compound inhibiting the bacterial growth visible to the naked eye.

S. aureus ATCC 29213 = assay: MIC/MBC broth microdilution, S. aureus; assay type: cell-based; conditions: Staphylococcus aureus, ATCC29213; S. aureus ATCC 29213, 24 h, 0.5 to 512 μg/mL
Protocol: as §1, §2

M. luteus ATCC 4698 = assay: MIC/MBC broth microdilution, M. luteus; assay type: cell-based; conditions: Micrococcus luteus, ATCC4698; M. luteus ATCC 4698, 24 h, 0.5 to 512 μg/mL
Protocol: as §1, §2

[2] = tested on: S. epidermidis ATCC 14990; assay: MIC/MBC broth microdilution, S. epidermidis; assay type: cell-based; conditions: Staphylococcus epidermidis, ATCC14990; S. epidermidis ATCC 14990, 24 h, 0.5 to 512 μg/mL
Protocol: as §1, §2

S. pyogenes ATCC 19615 = assay: MIC/MBC broth microdilution, S. pyogenes; assay type: cell-based; conditions: Streptococcus pyogenes, ATCC19615; S. pyogenes ATCC 19615, 24 h, 0.5 to 512 μg/mL
Protocol: as §1, §2

[3] = Cytotoxicity to human fibroblasts and keratinocytes, MTT assay; assay type: cell-based; conditions: HaCat, HFF-1 and Heka cells, 0.78-100 μM
Protocol: For this purpose, immortalized human foreskin fibroblasts HFF-1 were grown as monolayers from passage number 9-18 and maintained at 37° C. in an atmosphere of 5% CO2. For routine maintenance, the cells were cultured in 22.1 cm^2 plates as monolayers and maintained in Dulbecco's Modified Eagle Medium (DMEM, from Cell Lines Service), supplemented with 10% fetal bovine serum (FBS, from CLS) and 1% of antibiotic/antimycotic solution (100 units/mL of penicillin, 10 mg/mL of streptomycin and 0.25 mg/mL of amphotericin B from Sigma-Aldrich, St. Louis, MO, United States). The medium was replaced every two days and the cells were harvested every two weeks.
The cytotoxicity of the anthocyanins derivatives to HFF-1, Heka, and HaCat cells was evaluated using the standard MTT assay. Briefly, cells were seeded at a density of 5×10^4 cells or 1.5×10^4 cells/well onto 96-well plates and incubated at 37° C. in a 5% CO2 atmosphere. Cells were allowed to grow for 24 h, and serially diluted solutions of the different compounds (0.78-100 μM) were added to the wells. Then, cells were incubated for 48 h at 37° C., after which wells were washed once with phosphate buffered saline solution (PBS, Sigma-Aldrich, St. Louis, MO, United States), followed by addition of 0.45 mg/mL of MTT solution to each well. Crystals were allowed to form for 2 h. […] Absorbance was read at 570 nm.

| Molecule | SPF [1] | MIC (P. aeruginosa ATCC 27853) | MIC (S. aureus ATCC 29213) | MIC (M. luteus ATCC 4698) | MIC [2] | MIC (S. pyogenes ATCC 19615) | UV protection (0.2 mg/mL) ([1]; 0.2 mg/mL) | IC50 at 48 h [3] |
| --- | --- | --- | --- | --- | --- | --- | --- | --- |
| 4-(Dimethylamino)-cinnamyl-10-vinylene-pyranomalvidin-3-glucoside [VII-B] | 15.02 ± 0.07 |  |  |  |  |  |  |  |
| O=C(O)C1=Cc2c(OC3OC(CO)C(O)C(O)C3O)c(-c3ccc(O)c(O)c3)[o+]c3cc(O)cc(c23)O1 (centres unmarked) [II-A, Carboxypyranocyanidin-3-glucoside] | 20.71 ± 0.18 | > 512 µg/mL | > 512 µg/mL | > 512 µg/mL | > 512 µg/mL | > 512 µg/mL |  |  |
| COc1cc(-c2[o+]c3cc(O)cc4c3c(c2OC2OC(CO)C(O)C(O)C2O)C=C(C(=O)O)O4)cc(OC)c1O (centres unmarked) [II-B, Carboxypyranomalvidin-3-glucoside] | 13.92 ± 0.04 | > 512 µg/mL | > 512 µg/mL | > 512 µg/mL | > 512 µg/mL | > 512 µg/mL | 13.92 ± 0.04 | > 100 µM |
| CC1=Cc2c(OC3OC(CO)C(O)C(O)C3O)c(-c3ccc(O)c(O)c3)[o+]c3cc(O)cc(c23)O1 (centres unmarked) [III-A, Methylpyranocyanidin-3-glucoside] | 18.53 ± 0.15 | > 512 µg/mL | > 512 µg/mL | > 512 µg/mL | > 512 µg/mL | > 512 µg/mL |  |  |
| CN(C)c1ccc(C2=Cc3c(OC4OC(CO)C(O)C(O)C4O)c(-c4ccc(O)c(O)c4)[o+]c4cc(O)cc(c34)O2)cc1 (centres unmarked) [V-C, Pyranocyanidin-3-glucoside-(4-dimethylamino)-cinnamyl] | 13 ± 0.04 |  |  |  |  |  |  |  |
| COc1cc(-c2[o+]c3cc(O)cc4c3c(c2OC2OC(CO)C(O)C(O)C2O)C=C(/C=C/c2c(O)cc(O)c3c2OC(c2ccc(O)c(O)c2)C(O)C3)O4)cc(OC)c1O (centres unmarked) [VI-B, Vinylpyranomalvidin-3-O-glucoside-cathechin] | 8.35 ± 0.06 |  |  |  |  |  |  |  |
| CN(C)c1ccc(/C=C/C=C/C2=Cc3c(OC4OC(CO)C(O)C(O)C4O)c(-c4ccc(O)c(O)c4)[o+]c4cc(O)cc(c34)O2)cc1 (centres unmarked) [VIII-A, 4-(Dimethylamino)-cinnamyl-10-butadienylidene-pyranocyanidin-3-O-glucoside] | 14.78 ± 0.02 |  |  |  |  |  |  |  |
| Cyanidin-3-O-glucoside-4-vinylcatechol [V-A] | 24.00 ± 0.01 |  |  |  |  |  |  |  |
| Malvidin-3-O-glucoside-4-vinylcatechol [V-B] | 10.02 ± 0.00 |  |  |  |  |  |  |  |
